Data taken from US11608383B2, “Bispecific antibody against CD3 and CD20 in combination therapy for treating follicular lymphoma” (GENMAB A/S, priority 2020, dated 2023).

How the values were obtained:
CD20 = biological target: T1, CD20 (Homo sapiens, UniProt P11836); conditions: rituximab versus IgG1-CD20; different epitopes; cited from earlier work
T1 sequence (P11836 1-297): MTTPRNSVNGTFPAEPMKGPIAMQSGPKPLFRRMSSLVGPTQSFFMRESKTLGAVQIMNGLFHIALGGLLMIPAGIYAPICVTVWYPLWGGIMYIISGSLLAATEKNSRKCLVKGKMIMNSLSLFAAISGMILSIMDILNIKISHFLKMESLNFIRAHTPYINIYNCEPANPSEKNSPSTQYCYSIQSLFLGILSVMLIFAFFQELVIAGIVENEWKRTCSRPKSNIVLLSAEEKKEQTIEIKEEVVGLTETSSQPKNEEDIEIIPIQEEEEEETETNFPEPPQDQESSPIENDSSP

[1] = tested on: CD20-expressing Daudi cells; assay: T-cell-mediated cytotoxicity assay with lenalidomide-pre-treated T cells; format: cell-based; conditions: T cells pre-treated with lenalidomide and anti-CD3; E:T ratio 2:1
Experimental: T cells were incubated with (5 or 50 μM) or without lenalidomide in the absence or presence of immobilized anti-CD3 for 3 days. T cells were then used in a cytotoxicity assay with DuoBody-CD3×CD20 or DuoBody-CD3×ctrl (containing a CD3 arm and a non-binding control arm) and CD20-expressing Daudi cells as target cells (E:T ratio 2:1). Data shown are average percentages cytotoxicity±SD of duplicates, normalized to medium control (no antibody, no lenalidomide).
(§1) Briefly, T cells were activated with immobilized anti-CD3 in the presence (5 or 50 μM) or absence of lenalidomide for 3 days. […] T cells that were activated in the presence or absence of lenalidomide were subsequently tested for their cytotoxic capacity in response to epcoritamab.

[2] = tested on: CD20-expressing Raji-luc tumor cells; conditions: NOD-SCID mice with Raji-luc cells and PBMCs; even with excess IgG1-RTX-FEAR; cited from earlier work
[3] = tested on: primary DLBCL and follicular lymphoma patient biopsies; conditions: biopsies taken after administration of an anti-CD20 antibody; cited from earlier work
T cells = assay: T-cell activation with immobilized anti-CD3 in the presence of lenalidomide; format: cell-based; conditions: lenalidomide 5 or 50 μM with CD3 crosslinking, 3 days, vs no lenalidomide
Experimental: T cells were pre-incubated with assay medium or lenalidomide in the absence or presence of CD3 crosslinking by immobilized anti-CD3 for 3 days (as indicated on the x-axes), after which upregulation of CD69, CD25, PD-1 and LAMP-1 on CD4^+ and CD8^+ T cells was determined by flow cytometry. Data shown are geomean fluorescence intensities (FI) for four donors (each circle represents one condition for one donor). Pre-incubation conditions are shown on the x-axis.
as §1

follicular lymphoma = conditions: double-refractory cases; Salles et al., Haematologica 2017; cited from earlier work

In the case of “IgG1-CD20: CD20 antibody of which the CD20 arm of epcoritamab is derived (7D8)”, the “Competition for CD20 binding” value (CD20) is listed as “compete for CD20 binding”.

For “epcoritamab: IgG1 bispecific CD3×CD20 antibody; heavy/light chain pairs SEQ ID NOs: 24/25 and 26/27; CAS 2134641-34-0”, the “Activity at lower epcoritamab concentrations” value [1] is given as “higher activity at lower epcoritamab concentrations”, the Maximum percent cytotoxicity [1] is given as “Higher maximum percent cytotoxicity” and the “Tumor growth in xenograft model” value [2] is given as “effectively reduce tumor growth”. The “T-cell-mediated cytotoxicity in patient biopsies” value [3] was “induced T-cell-mediated cytotoxicity”.

For `Nc1cccc2c1CN(C1CCC(=O)NC1=O)C2=O` (stereo not shown) [lenalidomide, 3-(4-Amino-1-oxo-1,3-dihydro-2H-isoindol-2-yl) piperidine-2,6-dione], the “T-cell activation (upregulation of CD69, CD25; release of granzyme B and IFNγ)” value (T cells) was “increased T-cell activation”.

For `CC[C@H](Nc1ncnc2[nH]cnc12)c1nc2cccc(F)c2c(=O)n1-c1ccccc1` [idelalisib], the “1-year PFS” value (follicular lymphoma) is given as 43%.
